The values below are quoted from earlier work in patent US20070015926A1, “Method of preparing R-(+)-alpha-lipoic acid and its salt” (Nanjing Rally Biochemical Inc., priority 2005, published 2007).

The conditions of this data set: if given adequate oxygen.

Take `O=C(O)CCCC[C@@H]1CCSS1` [R-(+)-α-Lipoic Acid]: the polymerization entry is given as “susceptible to be polymerized”.
